Laboratory results reported in patent publication US12679822B2, “Alkenyl pyrimidine compound, preparation method therefor, and application thereof” (Hongyun Biotech Co., Ltd., priority 2020, dated 2026).

Legend:
Format in all cases: cell-based
[1] = target: BaF3 cell lines stably transfected with kinase EGFR L858R/T790M/C797S (Homo sapiens, UniProt P00533, T790M/C797S/L858R, cells depend on it); assay: Growth inhibition of BaF3 cell line stably transfected with kinase EGFR L858R/T790M/C797S (MTS); settings: 48 h, read-out: growth inhibitory activity IC50, L858R/T790M/C797S
Chain of BaF3 cell lines stably transfected with kinase EGFR L858R/T790M/C797S (P00533 whole entry T790M/C797S/L858R): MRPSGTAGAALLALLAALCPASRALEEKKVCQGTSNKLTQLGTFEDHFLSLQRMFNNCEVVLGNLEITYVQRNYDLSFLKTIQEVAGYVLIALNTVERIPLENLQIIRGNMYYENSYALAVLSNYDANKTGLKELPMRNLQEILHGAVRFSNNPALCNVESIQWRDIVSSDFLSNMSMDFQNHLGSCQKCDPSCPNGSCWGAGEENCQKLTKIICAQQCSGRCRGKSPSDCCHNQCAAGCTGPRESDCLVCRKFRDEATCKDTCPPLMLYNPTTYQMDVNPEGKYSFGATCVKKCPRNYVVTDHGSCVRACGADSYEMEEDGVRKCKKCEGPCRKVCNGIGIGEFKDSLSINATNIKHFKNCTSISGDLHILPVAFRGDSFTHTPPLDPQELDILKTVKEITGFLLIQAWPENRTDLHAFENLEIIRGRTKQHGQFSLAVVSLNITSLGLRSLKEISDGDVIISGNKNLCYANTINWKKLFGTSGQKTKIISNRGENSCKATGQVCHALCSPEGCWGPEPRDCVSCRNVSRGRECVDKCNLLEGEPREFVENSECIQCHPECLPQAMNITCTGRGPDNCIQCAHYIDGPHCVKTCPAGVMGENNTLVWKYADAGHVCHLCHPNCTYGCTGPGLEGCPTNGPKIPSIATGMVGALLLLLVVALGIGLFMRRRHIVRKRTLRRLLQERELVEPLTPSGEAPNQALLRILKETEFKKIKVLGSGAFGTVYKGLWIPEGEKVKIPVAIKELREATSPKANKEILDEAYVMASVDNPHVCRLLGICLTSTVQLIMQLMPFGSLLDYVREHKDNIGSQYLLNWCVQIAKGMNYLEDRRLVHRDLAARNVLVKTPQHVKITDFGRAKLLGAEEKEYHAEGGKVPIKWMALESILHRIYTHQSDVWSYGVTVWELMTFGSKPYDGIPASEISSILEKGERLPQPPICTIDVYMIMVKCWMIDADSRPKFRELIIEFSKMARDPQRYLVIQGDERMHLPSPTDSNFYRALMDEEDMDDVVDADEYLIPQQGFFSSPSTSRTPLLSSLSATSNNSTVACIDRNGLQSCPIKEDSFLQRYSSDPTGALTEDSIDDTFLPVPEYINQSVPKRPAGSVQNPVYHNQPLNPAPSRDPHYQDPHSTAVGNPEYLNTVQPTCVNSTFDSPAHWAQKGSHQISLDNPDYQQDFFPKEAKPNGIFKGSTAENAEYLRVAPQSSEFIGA
Outline: (§1)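 IC50 obtained from MTS-based inhibition after 48 h compound treatment (maximum 10 μM, 8 concentrations).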

[2] = target: BaF3 cell lines stably transfected with kinase EGFR Del/T790M (Homo sapiens, UniProt P00533, T790M, cells depend on it, form not given); assay: Growth inhibition of BaF3 cell line stably transfected with kinase EGFR Del/T790M (MTS); settings: 48 h, read-out: growth inhibitory activity IC50, Del/T790M
Outline: as §1

[3] = target: BaF3 cell lines stably transfected with kinase EGFR L858R/T790M (Homo sapiens, UniProt P00533, T790M/L858R, cells depend on it); assay: Growth inhibition of BaF3 cell line stably transfected with kinase EGFR L858R/T790M (MTS); settings: 48 h, read-out: growth inhibitory activity IC50, L858R/T790M
Outline: as §1

[4] = target: BaF3 cell lines stably transfected with kinase EGFR Del/T790M/C797S (Homo sapiens, UniProt P00533, T790M/C797S, cells depend on it, form not given); assay: Growth inhibition of BaF3 cell line stably transfected with kinase EGFR Del/T790M/C797S (MTS); settings: 48 h, read-out: growth inhibitory activity IC50, Del/T790M/C797S
Chain of BaF3 cell lines stably transfected with kinase EGFR Del/T790M/C797S (P00533 with tags, fused parts or gaps DEL746-750/T790M/C797S, form open): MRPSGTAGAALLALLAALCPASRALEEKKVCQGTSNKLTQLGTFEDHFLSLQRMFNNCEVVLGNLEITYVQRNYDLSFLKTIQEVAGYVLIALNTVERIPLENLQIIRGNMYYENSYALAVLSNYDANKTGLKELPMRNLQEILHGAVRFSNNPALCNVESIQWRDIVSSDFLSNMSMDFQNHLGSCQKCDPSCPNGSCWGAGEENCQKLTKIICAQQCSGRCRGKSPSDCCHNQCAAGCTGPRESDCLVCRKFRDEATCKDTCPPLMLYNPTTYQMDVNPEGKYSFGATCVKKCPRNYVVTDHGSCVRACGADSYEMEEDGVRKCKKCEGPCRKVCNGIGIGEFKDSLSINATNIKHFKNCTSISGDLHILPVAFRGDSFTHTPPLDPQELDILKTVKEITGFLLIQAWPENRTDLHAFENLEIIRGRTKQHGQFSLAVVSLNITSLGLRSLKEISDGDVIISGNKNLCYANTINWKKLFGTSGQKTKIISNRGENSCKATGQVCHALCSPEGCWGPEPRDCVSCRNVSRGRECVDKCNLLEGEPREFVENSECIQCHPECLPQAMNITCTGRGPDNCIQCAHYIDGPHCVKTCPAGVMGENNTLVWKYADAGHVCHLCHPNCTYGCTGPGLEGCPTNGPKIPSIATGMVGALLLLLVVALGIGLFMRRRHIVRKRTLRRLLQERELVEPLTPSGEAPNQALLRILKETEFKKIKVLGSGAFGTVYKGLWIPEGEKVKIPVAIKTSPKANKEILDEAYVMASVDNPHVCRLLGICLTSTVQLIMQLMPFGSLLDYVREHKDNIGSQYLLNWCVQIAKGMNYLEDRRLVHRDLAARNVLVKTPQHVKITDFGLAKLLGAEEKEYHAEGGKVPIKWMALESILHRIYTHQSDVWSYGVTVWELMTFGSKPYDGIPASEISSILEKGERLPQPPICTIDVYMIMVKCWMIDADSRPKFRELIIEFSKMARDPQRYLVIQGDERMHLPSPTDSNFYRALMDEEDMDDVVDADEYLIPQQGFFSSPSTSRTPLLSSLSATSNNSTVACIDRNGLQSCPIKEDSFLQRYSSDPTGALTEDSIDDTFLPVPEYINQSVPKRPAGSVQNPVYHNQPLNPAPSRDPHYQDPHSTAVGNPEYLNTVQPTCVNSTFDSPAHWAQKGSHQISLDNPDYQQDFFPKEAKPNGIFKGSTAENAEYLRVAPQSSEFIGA
Outline: as §1

[5] = target: BaF3 cell lines stably transfected with kinase EGFR Del (Homo sapiens, UniProt P00533, cells depend on it, form not given); assay: Growth inhibition of BaF3 cell line stably transfected with kinase EGFR Del (MTS); settings: 48 h, read-out: growth inhibitory activity IC50, Del
Chain of BaF3 cell lines stably transfected with kinase EGFR Del (P00533 with tags, fused parts or gaps DEL746-750): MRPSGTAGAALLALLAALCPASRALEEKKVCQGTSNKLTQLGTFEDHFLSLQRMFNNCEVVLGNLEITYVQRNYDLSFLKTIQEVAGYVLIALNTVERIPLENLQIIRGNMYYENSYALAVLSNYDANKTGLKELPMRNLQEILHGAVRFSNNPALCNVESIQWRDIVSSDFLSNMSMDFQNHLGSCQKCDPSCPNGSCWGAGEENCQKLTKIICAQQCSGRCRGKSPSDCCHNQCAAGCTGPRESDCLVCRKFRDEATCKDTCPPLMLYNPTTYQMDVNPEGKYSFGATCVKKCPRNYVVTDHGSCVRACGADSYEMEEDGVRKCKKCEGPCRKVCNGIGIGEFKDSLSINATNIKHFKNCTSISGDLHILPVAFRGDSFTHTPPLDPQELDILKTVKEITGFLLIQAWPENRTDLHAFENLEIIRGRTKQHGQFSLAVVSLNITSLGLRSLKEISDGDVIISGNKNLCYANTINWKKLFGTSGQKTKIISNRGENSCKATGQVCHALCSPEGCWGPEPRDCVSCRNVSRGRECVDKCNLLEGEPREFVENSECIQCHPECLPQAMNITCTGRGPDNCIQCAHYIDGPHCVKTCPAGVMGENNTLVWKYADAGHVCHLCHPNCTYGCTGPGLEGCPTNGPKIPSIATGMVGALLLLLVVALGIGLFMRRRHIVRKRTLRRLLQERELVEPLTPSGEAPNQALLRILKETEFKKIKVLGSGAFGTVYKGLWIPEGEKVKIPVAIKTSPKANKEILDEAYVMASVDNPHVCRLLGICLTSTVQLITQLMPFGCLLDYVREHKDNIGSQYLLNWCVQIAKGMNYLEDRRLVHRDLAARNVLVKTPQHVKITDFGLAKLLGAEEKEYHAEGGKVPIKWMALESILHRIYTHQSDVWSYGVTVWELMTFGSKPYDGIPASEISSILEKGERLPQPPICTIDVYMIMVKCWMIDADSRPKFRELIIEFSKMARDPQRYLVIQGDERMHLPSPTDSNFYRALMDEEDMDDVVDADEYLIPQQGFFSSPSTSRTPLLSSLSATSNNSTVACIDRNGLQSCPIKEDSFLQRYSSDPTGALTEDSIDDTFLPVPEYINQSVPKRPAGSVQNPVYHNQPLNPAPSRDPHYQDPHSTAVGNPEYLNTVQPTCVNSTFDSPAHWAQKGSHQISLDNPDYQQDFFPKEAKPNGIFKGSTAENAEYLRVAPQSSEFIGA
Outline: as §1

[6] = target: BaF3 cell lines stably transfected with kinase EGFR L858R (Homo sapiens, UniProt P00533, L858R, cells depend on it); assay: Growth inhibition of BaF3 cell line stably transfected with kinase EGFR L858R (MTS); settings: 48 h, read-out: growth inhibitory activity IC50, L858R
Chain of BaF3 cell lines stably transfected with kinase EGFR L858R (P00533 whole entry L858R): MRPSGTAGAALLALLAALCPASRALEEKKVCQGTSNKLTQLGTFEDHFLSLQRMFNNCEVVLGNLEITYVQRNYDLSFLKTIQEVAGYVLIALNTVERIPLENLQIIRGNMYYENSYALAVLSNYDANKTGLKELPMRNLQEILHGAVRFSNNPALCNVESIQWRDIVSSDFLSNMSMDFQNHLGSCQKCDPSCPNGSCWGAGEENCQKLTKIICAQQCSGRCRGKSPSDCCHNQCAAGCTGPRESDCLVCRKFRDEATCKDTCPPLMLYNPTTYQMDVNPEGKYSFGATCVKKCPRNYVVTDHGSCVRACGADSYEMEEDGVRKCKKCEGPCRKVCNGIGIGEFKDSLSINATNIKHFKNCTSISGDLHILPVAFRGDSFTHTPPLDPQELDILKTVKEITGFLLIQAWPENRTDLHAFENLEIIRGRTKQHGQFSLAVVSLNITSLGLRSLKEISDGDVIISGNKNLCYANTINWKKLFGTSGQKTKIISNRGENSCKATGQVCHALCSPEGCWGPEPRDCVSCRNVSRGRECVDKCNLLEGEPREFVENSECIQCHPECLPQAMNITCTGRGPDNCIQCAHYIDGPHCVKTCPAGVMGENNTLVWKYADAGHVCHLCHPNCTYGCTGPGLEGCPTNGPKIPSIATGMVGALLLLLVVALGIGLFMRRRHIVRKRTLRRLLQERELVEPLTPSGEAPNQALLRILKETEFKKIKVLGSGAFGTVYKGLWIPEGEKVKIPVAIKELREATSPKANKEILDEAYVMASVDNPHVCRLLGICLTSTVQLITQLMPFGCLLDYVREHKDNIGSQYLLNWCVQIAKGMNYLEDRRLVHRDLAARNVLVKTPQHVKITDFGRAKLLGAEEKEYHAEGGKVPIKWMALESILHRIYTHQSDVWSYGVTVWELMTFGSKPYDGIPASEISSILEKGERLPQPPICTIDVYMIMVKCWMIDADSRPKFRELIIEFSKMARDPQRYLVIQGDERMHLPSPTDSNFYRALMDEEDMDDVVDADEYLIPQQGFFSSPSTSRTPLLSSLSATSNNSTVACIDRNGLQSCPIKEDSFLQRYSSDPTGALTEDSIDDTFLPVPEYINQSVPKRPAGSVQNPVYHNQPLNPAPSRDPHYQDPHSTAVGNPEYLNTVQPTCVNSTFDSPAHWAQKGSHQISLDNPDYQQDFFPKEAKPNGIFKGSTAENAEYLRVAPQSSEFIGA
Outline: as §1

GI50 [1] [nM]	GI50 [2] [nM]	GI50 [3] [nM]	GI50 [4] [nM]	GI50 [5] [nM]	GI50 [6] [nM]	Structure (SMILES)
≤ 50	50 to 500	≤ 50	≤ 50	50 to 500	50 to 500	C=Cc1cnc(Nc2cc(CC)c(N3CCC(N4CCNCC4)CC3)cc2OC)nc1Nc1ccc2nccnc2c1N(C)S(C)(=O)=O [II-52]
500 to 2500	500 to 2500	50 to 500	500 to 2500	500 to 2500	50 to 500	C=Cc1cnc(Nc2ccc(N3CCC(N4CCN(C)CC4)CC3)cc2OC)nc1Nc1ccc2nccnc2c1S(=O)(=O)C(C)C [III-18]
50 to 500	≤ 50	50 to 500	50 to 500	≤ 50	≤ 50	C=Cc1cnc(Nc2cc(CC)c(N3CCC(N4CCN(C)CC4)CC3)cc2OC)nc1Nc1ccc2nccnc2c1NS(C)(=O)=O [II-32]
50 to 500	50 to 500	50 to 500	500 to 2500	500 to 2500	500 to 2500	C=Cc1cnc(Nc2cc(CC)c(N3CCC(N(C)C)CC3)cc2OC)nc1Nc1ccc2nccnc2c1S(C)(=O)=O [III-2]
50 to 500	50 to 500	≤ 50	50 to 500	50 to 500	50 to 500	C=Cc1cnc(Nc2ccc(N3CCC(N4CCN(C)CC4)CC3)c(F)c2F)nc1Nc1ccc2nccnc2c1S(=O)(=O)NC [IV-10]
50 to 500	50 to 500	50 to 500	50 to 500	50 to 500	50 to 500	C=Cc1cnc(Nc2cc(CC)c(N3CCC(N4CCN(C)CC4)CC3)cc2OC(F)(F)F)nc1Nc1ccc2nccnc2c1NS(C)(=O)=O [II-34]

The remaining lines, values behind:

Structure (SMILES)	GI50 [1] [nM]	GI50 [2] [nM]	GI50 [3] [nM]	GI50 [4] [nM]	GI50 [5] [nM]	GI50 [6] [nM]
C=C(C)c1cnc(Nc2ccc(N3CCC(N4CCN(C)CC4)CC3)c(CC)c2)nc1Nc1ccc2nccnc2c1N(C)S(C)(=O)=O [II-24]	50 to 500	≤ 50	≤ 50	50 to 500	≤ 50	≤ 50
C=Cc1cnc(Nc2ccc3c(c2)CCN(C)CC3)nc1Nc1ccc2nccnc2c1P(C)(C)=O [Compound I-24]	50 to 500	50 to 500	50 to 500	50 to 500	50 to 500	≤ 50
C=Cc1cnc(Nc2cc(CC)c(N3CCC(N4CCN(C)CC4)CC3)nc2OC)nc1Nc1ccc2nccnc2c1P(C)(C)=O [Compound I-5]	≤ 50	≤ 50	≤ 50	≤ 50	≤ 50	≤ 50
C=C(C)c1cnc(Nc2ccc(N3CCC(N4CCN(C)CC4)CC3)nc2OC)nc1Nc1ccc2nccnc2c1P(C)(C)=O [Compound I-19]	50 to 500	50 to 500	≤ 50	500 to 2500	≤ 50	50 to 500
C=Cc1cnc(Nc2cc(CC)c(N3CCN(C)CC3)cc2OC)nc1Nc1ccc2nccnc2c1N(C)S(C)(=O)=O [II-4]	≤ 50	≤ 50	≤ 50	≤ 50	≤ 50	≤ 50
C=Cc1cnc(Nc2cc(CC3CC3)c(N3CCC(N4CCN(C)CC4)CC3)cc2OC)nc1Nc1ccc2nccnc2c1P(C)(C)=O [Compound I-7]	≤ 50	≤ 50	≤ 50	≤ 50	≤ 50	≤ 50
